Where two headings read alike, the source gives them in different places.
How the values were obtained:
Alternaria alternata [1] = assay: In vitro poisoned food technique against fungus (Ex. 20); assay type: cell-based; conditions: poisoned food technique, PDA medium, dose 1 ml/gm/lit., after seven days
Alternaria alternata [2] = assay: Alternaria leaf spot/blight on inoculated tomato plants (Ex. 28); assay type: in vivo; conditions: tomato plants, Alternaria alternata; after 7 days; dose 1 ml/gm/lit
tomato seedlings = assay: Response of tomato plants, greenhouse growth (Ex. 30); assay type: in vivo; conditions: tomato seedlings, dose 1 ml/gm/lit; for Plant Height 5th Day / Stem Girth 5th Day / CCI 5th Day: 5th day after application; for Plant Height 10th Day / Stem Girth 10th Day / CCI 10th Day: 10th day after application; for Plant Height % Increase over pre on 10th Day / Stem Girth % Increase over pre on 10th Day / CCI % Increase over pre on 10th Day / Root Length (cm) 10th Day / Root Length % Increase over control: 10th day; for Root Length % Increase over control: vs water control
chili seedlings = assay: Response of chili plants, greenhouse growth (Ex. 31); assay type: in vivo; conditions: chili seedlings, dose 1 ml/gm/lit; for CCI 5th Day / Plant Height (cm) 5th Day: 5th day after application; for CCI 10th Day / Plant Height (cm) 10th Day: 10th day after application; for CCI % Increase over pre on 10th Day / Plant Height % Increase over pre on 10th Day / Root Lenght (cm) 10th Day / Stem Girth % Increase over pre on 10th Day / Root Lenght % Increase over control: 10th day; for Root Lenght % Increase over control: vs water control
Aphid [3] = conditions: Dose 1 ml/gm/lit.; for Total No. of dead insect at 48 Hrs.: 10 insects/treatment, 4 replications, cotton leaves
Mite [4] = conditions: Dose 1 ml/gm/lit.; for Total No. of dead insect at 48 Hrs.: 10 insects/treatment, 4 replications, okra leaves
Mealy Bug [5] = conditions: Mealy Bug on cotton leaves, dose 1 ml/gm/lit., 48 Hrs.; for Total No. of dead insect at 48 Hrs.: 10 insects/treatment, 4 replications; for % Corrected Mortality at 48 Hrs.: corrected for water control
Helicoverpa armigera [6] = conditions: Helicoverpa armigera on okra fruits, dose 1 ml/gm/lit., 72 Hrs.; for Total No. of dead insect at 72 Hrs.: 10 insects/treatment, 4 replications; for % Corrected Mortality at 72 Hrs.: corrected for water control
Spodoptera litura [7] = conditions: Spodoptera litura on castor leaves, dose 1 ml/gm/lit.; for Total No. of dead insect at 72 Hrs.: 10 insects/treatment
Thrips [8] = conditions: Thrips on cotton leaves, dose 1 ml/gm/lit.; for Total No. of dead insect at 48 Hrs.: 10 insects/treatment
Aphid [9] = conditions: Aphids on cotton plants, green house, dose 1 ml/gm/lit.; for Total No. of dead insect at 48 Hrs.: 10 insects/plant, 10 plants/treatment
Mite [10] = conditions: mite on okra plants, green house, dose 1 ml/gm/lit. spray; for % Mortality at 48 Hrs. / Total No. of dead insect at 48 Hrs.: 48 hrs after application; for % Corrected Mortality at 48 Hrs.: corrected for water control
Mealy Bug [11] = conditions: mealy bug on cotton plants, green house, dose 1 ml/gm/lit. spray; for % Mortality at 48 Hrs. / Total No. of dead insect at 48 Hrs.: 48 hrs after application; for % Corrected Mortality at 48 Hrs.: corrected for water control
Helicoverpa armigera [12] = conditions: Helicoverpa armigera 3rd instar on chickpea plants, dose 1 ml/gm/lit. spray; for % Mortality at 72 Hrs.: 72 hrs after application; for % Corrected Mortality at 72 Hrs.: corrected for water control
Spodoptera litura [13] = conditions: Spodoptera litura 3rd instar on cabbage plants, dose 1 ml/gm/lit. spray; for % Mortality at 72 Hrs.: 72 hrs after application; for % Corrected Mortality at 72 Hrs.: corrected for water control
Thrips [14] = conditions: thrips on cotton plants, greenhouse, dose 1 ml/gm/lit. spray; for % Mortality at 48 Hrs. / Total No. of dead insect at 48 Hrs.: 48 hrs after application; for % Corrected Mortality at 48 Hrs.: corrected for water control
Spodoptera litura [15] = assay: whole plant or invertebrate; conditions: 72 h
Thrips [16] = assay: whole plant or invertebrate; conditions: in Gossypium hirsutum, 48 h
Aphid [17] = assay: whole plant or invertebrate; conditions: 48 h
[18] = Table 13, descriptive; no test described; cited from earlier work
[19] = read-out: % Corrected Mortality at 48 Hrs.
[20] = read-out: % Mortality at 48 Hrs.
[21] = 48 hrs, corrected for water control

C=CCc1ccc(OC)cc1 [Methyl chavicol]
Mean colony Diameter (mm) (Alternaria alternata [1]): 54.00 mm | inhibition of growth at 1 mL or g/L (Alternaria alternata [1]; vs untreated control, read-out: % Inhibition of growth): 38.6% | % Disease reduction over Control (Alternaria alternata [2]): 48.76% | Plant Height 5th Day (tomato seedlings): 7.16 cm | Stem Girth 5th Day (tomato seedlings): 1.50 mm | Plant Height 10th Day (tomato seedlings): 7.86 cm | Stem Girth 10th Day (tomato seedlings): 2.10 mm | Plant Height % Increase over pre on 10th Day (tomato seedlings): 28.43% | Stem Girth % Increase over pre on 10th Day (tomato seedlings): 55.56% | CCI 5th Day (tomato seedlings): 14.23 | CCI % Increase over pre on 10th Day (tomato seedlings): 23.12% | Root Length (cm) 10th Day (tomato seedlings): 4.13 cm | CCI 10th Day (tomato seedlings): 15.23 | Root Length % Increase over control (tomato seedlings): 24.05% | CCI 5th Day (chili seedlings): 12.70 | Plant Height (cm) 5th Day (chili seedlings): 5.97 cm | CCI % Increase over pre on 10th Day (chili seedlings): 38.53% | Plant Height % Increase over pre on 10th Day (chili seedlings): 44.42% | Root Lenght (cm) 10th Day (chili seedlings): 3.11 cm | Stem Girth % Increase over pre on 10th Day (chili seedlings): 45.91% | CCI 10th Day (chili seedlings): 15.1 | Plant Height (cm) 10th Day (chili seedlings): 6.21 cm | Root Lenght % Increase over control (chili seedlings): 13.83% | Total No. of dead insect at 48 Hrs. (Aphid [3]): 6.50 | % Corrected Mortality at 48 Hrs. (Aphid [3]): 60.00% | % Mortality at 48 Hrs. (Aphid [3]): 65.00% | Total No. of dead insect at 48 Hrs. (Mite [4]): 4.50 | % Corrected Mortality at 48 Hrs. (Mite [4]): 40.54% | % Mortality at 48 Hrs. (Mite [4]): 45.00% | Total No. of dead insect at 48 Hrs. (Mealy Bug [5]): 6.25 | % Mortality at 48 Hrs. (Mealy Bug [5]): 62.50% | % Corrected Mortality at 48 Hrs. (Mealy Bug [5]): 60.53% | Total No. of dead insect at 72 Hrs. (Helicoverpa armigera [6]): 6.25 | % Mortality at 72 Hrs. (Helicoverpa armigera [6]): 62.50% | % Corrected Mortality at 72 Hrs. (Helicoverpa armigera [6]): 62.50% | Total No. of dead insect at 72 Hrs. (Spodoptera litura [7]; 72 hrs after application): 6.50 | Total No. of dead insect at 48 Hrs. (Thrips [8]; 48 hrs after application): 5.50 | Total No. of dead insect at 48 Hrs. (Aphid [9]; 48 hrs): 67.50 | % Mortality at 48 Hrs. (Mite [10]): 42.50% | Total No. of dead insect at 48 Hrs. (Mite [10]): 42.50 | % Corrected Mortality at 48 Hrs. (Mite [10]): 39.47% | % Mortality at 48 Hrs. (Mealy Bug [11]): 60.00% | Total No. of dead insect at 48 Hrs. (Mealy Bug [11]): 60.00 | % Corrected Mortality at 48 Hrs. (Mealy Bug [11]): 55.56% | % Mortality at 72 Hrs. (Helicoverpa armigera [12]): 67.50% | % Corrected Mortality at 72 Hrs. (Helicoverpa armigera [12]): 67.50% | % Mortality at 72 Hrs. (Spodoptera litura [13]): 62.50% | % Corrected Mortality at 72 Hrs. (Spodoptera litura [13]): 60.53% | % Mortality at 48 Hrs. (Thrips [14]): 57.50% | Total No. of dead insect at 48 Hrs. (Thrips [14]): 57.50 | % Corrected Mortality at 48 Hrs. (Thrips [14]): 52.78% | mortality at 1 mL or g/L (Spodoptera litura [15]; read-out: % Corrected Mortality at 72 Hrs.): 63.2% | mortality at 1 mL or g/L (Spodoptera litura [15]; read-out: % Mortality at 72 Hrs.): 65% | mortality at 1 mL or g/L (Thrips [16]; [19]): 48.6% | mortality at 1 mL or g/L (Thrips [16]; [20]): 55% | mortality at 1 mL or g/L (Aphid [17]; [19]): 61.8% | mortality at 1 mL or g/L (Aphid [17]; [20]): 67.5%

Parthenin
Mean colony Diameter (mm) (Alternaria alternata [1]): 78.00 mm | % Inhibition of growth (Alternaria alternata [1]; vs untreated control): 11.36% | % Disease reduction over Control (Alternaria alternata [2]): 43.80% | Plant Height 5th Day (tomato seedlings): 6.64 cm | Stem Girth 5th Day (tomato seedlings): 1.66 mm | Plant Height 10th Day (tomato seedlings): 7.29 cm | Stem Girth 10th Day (tomato seedlings): 2.22 mm | Plant Height % Increase over pre on 10th Day (tomato seedlings): 29.95% | Stem Girth % Increase over pre on 10th Day (tomato seedlings): 55.53% | Plant Height Pre (tomato seedlings; before application): 5.61 cm | Stem Girth Pre (tomato seedlings; before application): 1.43 mm | CCI 5th Day (tomato seedlings): 13.95 | CCI % Increase over pre on 10th Day (tomato seedlings): 20.70% | Root Length (cm) 10th Day (tomato seedlings): 4.05 cm | CCI 10th Day (tomato seedlings): 14.87 | Root Length % Increase over control (tomato seedlings): 21.63% | CCI Pre (tomato seedlings; pre-application baseline): 12.32 | CCI 5th Day (chili seedlings): 14.50 | Plant Height (cm) 5th Day (chili seedlings): 6.13 cm | CCI % Increase over pre on 10th Day (chili seedlings): 74.40% | Plant Height % Increase over pre on 10th Day (chili seedlings): 52.29% | Root Lenght (cm) 10th Day (chili seedlings): 3.12 cm | Stem Girth % Increase over pre on 10th Day (chili seedlings): 38.18% | CCI 10th Day (chili seedlings): 15.87 | Plant Height (cm) 10th Day (chili seedlings): 6.65 cm | Root Lenght % Increase over control (chili seedlings): 14.01% | CCI Pre (chili seedlings; pre-application baseline): 9.10 | Plant Height (cm) Pre (chili seedlings; pre-application baseline): 4.37 cm | Total No. of dead insect at 48 Hrs. (Aphid [3]): 6.00 | % Corrected Mortality at 48 Hrs. (Aphid [3]): 54.29% | % Mortality at 48 Hrs. (Aphid [3]): 60.00% | Total No. of dead insect at 48 Hrs. (Mite [4]): 3.25 | % Corrected Mortality at 48 Hrs. (Mite [4]): 27.03% | % Mortality at 48 Hrs. (Mite [4]): 32.50% | Total No. of dead insect at 48 Hrs. (Mealy Bug [5]): 4.75 | % Mortality at 48 Hrs. (Mealy Bug [5]): 47.50% | % Corrected Mortality at 48 Hrs. (Mealy Bug [5]): 44.74% | Total No. of dead insect at 72 Hrs. (Helicoverpa armigera [6]): 3.25 | % Mortality at 72 Hrs. (Helicoverpa armigera [6]): 32.50% | % Corrected Mortality at 72 Hrs. (Helicoverpa armigera [6]): 32.50% | Total No. of dead insect at 72 Hrs. (Spodoptera litura [7]; 72 hrs after application): 2.75 | % Mortality at 72 Hrs. (Spodoptera litura [7]; 72 hrs after application): 27.50% | % Corrected Mortality at 72 Hrs. (Spodoptera litura [7]; 72 hrs, corrected for water control): 23.68% | Total No. of dead insect at 48 Hrs. (Thrips [8]; 48 hrs after application): 4.75 | % Mortality at 48 Hrs. (Thrips [8]; 48 hrs after application): 47.50% | % Corrected Mortality at 48 Hrs. (Thrips [8]; [21]): 40.00% | Total No. of dead insect at 48 Hrs. (Aphid [9]; 48 hrs): 57.50 | % Mortality at 48 Hrs. (Aphid [9]; 48 hrs after application): 57.50% | % Corrected Mortality at 48 Hrs. (Aphid [9]; [21]): 50.00% | % Mortality at 48 Hrs. (Mite [10]): 22.50% | Total No. of dead insect at 48 Hrs. (Mite [10]): 22.50 | % Corrected Mortality at 48 Hrs. (Mite [10]): 18.42% | % Mortality at 48 Hrs. (Mealy Bug [11]): 50.00% | Total No. of dead insect at 48 Hrs. (Mealy Bug [11]): 50.00 | % Corrected Mortality at 48 Hrs. (Mealy Bug [11]): 44.44% | % Mortality at 72 Hrs. (Helicoverpa armigera [12]): 35.00% | % Corrected Mortality at 72 Hrs. (Helicoverpa armigera [12]): 35.00% | % Mortality at 72 Hrs. (Spodoptera litura [13]): 27.50% | % Corrected Mortality at 72 Hrs. (Spodoptera litura [13]): 23.68% | % Mortality at 48 Hrs. (Thrips [14]): 45.00% | Total No. of dead insect at 48 Hrs. (Thrips [14]): 45.00 | % Corrected Mortality at 48 Hrs. (Thrips [14]): 38.89% | Antioxidant Activity - Mode of action [18]: Possesses antioxidant | Insecticidal Activities - Mode of action [18]: Antifeedant activity against

Source: US20250351832A1, “PHYTOCHEMICALS AS BIOPESTICIDES AND BIOSTIMULANTS” (KAY BEE BIO ORGANICS PVT. LTD., priority 2024, published 2025)
